The Kd is the free concentration of one partner at which half of the binding sites on the other are occupied at equilibrium, for simple one-to-one binding.

Several values for one entry are separate records, joined by “and”; a condition that tells them apart may be missing. Equal values may be shown once. Where only a bound is given, the exact number is not on record here.

T1 sequence (P08191 22-177): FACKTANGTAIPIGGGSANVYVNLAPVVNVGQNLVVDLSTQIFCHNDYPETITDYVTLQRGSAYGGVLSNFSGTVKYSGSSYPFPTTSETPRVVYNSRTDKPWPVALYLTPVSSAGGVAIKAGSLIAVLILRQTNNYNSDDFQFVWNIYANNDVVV

For the first assay, the system named is bacterial strain LF82 binding to the glycoprotein BSA-(Mannose)3. In words: Bacterial Binding Assay (BBA). The assay is classed as cell-based, Escherichia coli. The following applies: read-out: Bacterial Binding Assay IC50, LF82/Luciferase strain binding to BSA-(Man)3 coated plates, luminescence. The procedure, abridged: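 Inhibition of LF82/luciferase E. coli adhesion is read as luminescence after washing off unbound cells. Compound and bacteria (10^7 per well) are co-incubated 40-75 min at room temperature on wells coated with 0.5-2 μg/mL BSA-(Man)3, with BSA-only wells as background; IC50 values derived.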
Turning to `CCCCCC1(O)c2cc(C#C[C@H]3O[C@H](CO)[C@@H](O)[C@H](O)[C@@H]3O)ccc2-c2ccc(C#C[C@H]3O[C@H](CO)[C@@H](O)[C@H](O)[C@@H]3O)cc21` [Compound 113, (2R,3S,4R,5S,6R)-2-(hydroxymethyl)-6-[2-[9-hydroxy-9-pentyl-7-[2-[(2R,3S,4R,5S,6R)-3,4,5-trihydroxy-6-(hydroxymethyl)tetrahydropyran-2-yl]ethynyl]fluoren-2-yl]ethynyl]tetrahydropyran-3,4,5-triol], the IC50 came to 5.5 nM.
On to `O=C1CC[C@@H](C(=O)c2c(C#C[C@H]3O[C@H](CO)[C@@H](O)[C@H](O)[C@@H]3O)ccc3c2C2(CCNCC2)c2cc(C#C[C@H]4O[C@H](CO)[C@@H](O)[C@H](O)[C@@H]4O)ccc2-3)N1` [Compound 244, (5S)-5-[2,7-bis[2-[(2R,3S,4R,5S,6R)-3,4,5-trihydroxy-6-(hydroxymethyl)tetrahydropyran-2-yl]ethynyl]spiro[fluorene-9,4piperidine]-1carbonyl]pyrrolidin-2-one], for which the IC50 was 0.24 nM.
Regarding `COc1cc(-c2ccc([C@H]3O[C@H](CO)[C@@H](O)[C@H](O)[C@@H]3O)cc2)ccc1[C@H]1O[C@H](CO)[C@@H](O)[C@H](O)[C@@H]1O` [Compound 151], the IC50 worked out at 185 nM.
`OC[C@H]1O[C@H](C#Cc2cnc(C#C[C@H]3O[C@H](CO)[C@@H](O)[C@H](O)[C@@H]3O)cn2)[C@@H](O)[C@@H](O)[C@@H]1O` [Compound 135]: the IC50 came to 580 nM.
As for `Cc1cc(-c2ccc([C@H]3O[C@H](CO)[C@@H](O)[C@H](O)[C@@H]3O)cc2F)ccc1[C@H]1O[C@H](CO)[C@@H](O)[C@H](O)[C@@H]1O` [Compound 150, (2R,2,3S,3,4R,4,5S,5,6R,6)-6,6(2-fluoro-3methyl-[1,1biphenyl]-4,4diyl)bis(2-(hydroxymethyl)tetrahydro-2H-pyran-3,4,5-triol)], the IC50 came out at 71 nM.
On the same count and under the same terms, the value for `OC[C@H]1O[C@H](C#Cc2ccc(C#C[C@H]3O[C@H](CO)[C@@H](O)[C@H](O)[C@@H]3O)c(F)c2F)[C@@H](O)[C@@H](O)[C@@H]1O` [Compound 78, (2R,3S,4R,5S,6R)-2-[2-[2,3-difluoro-4-[2-[(2R,3S,4R,5S,6R)-3,4,5-trihydroxy-6-(hydroxymethyl)tetrahydropyran-2-yl]ethynyl]phenyl]ethynyl]-6-(hydroxymethyl)tetrahydropyran-3,4,5-triol] was 63 nM.

A further assay has as its target T1, FimH-CRD (Escherichia coli, UniProt P08191).
T1 construct: The first 177 amino acids of the FimH protein are expressed as a fusion protein; thrombin tag (printed as 'fusion protein with thrombin') (cleaved yes); made in house; host or cells: bacteria (pET21b plasmid)
In words: Competitive binding assay by fluorescence polarization, assay 1 (compounds prepared by manual dilution). More on the design: species or system E. coli. The settings on record: Assay 1 Kd, 5 nM Alexa 647 mannoside probe, 60 nM FimH-CRD, replicate values in one cell. The procedure: The first 177 amino acids of the FimH protein are expressed as a fusion protein with thrombin in a pET21b plasmid in bacteria. This FimH protein sequence contains the carbohydrate recognition domain (CRD) and shall be termed FimH-CRD. Following bacterial expression of the protein, the FimH-CRD protein is purified to homogeneity and the thrombin tag removed by protease cleavage. A competitive binding assay by fluorescence polarization is performed using 5 nM of the Alexa 647 mannoside probe and 60 nM of the FimH-CRD. The samples are assayed in a low volume 384 well microtiter plate in a final volume of 20 μl. The final assay buffer conditions are the following, 50 mM Tris-Cl, ph 7.0, 100 mM NaCl, 1 mM EDTA, 5 mM β-mercaptoethanol, 0.05% BSA and 2.5% DMSO. Two assays are performed for FimH, termed assay 1 or assay 2. The assay conditions are the same for both assays except the following: assay 1 has compounds prepared by manual dilution in a serial dilution factor with 12-point dose response while assay 2 has compounds prepared by a robotics system also through a serial dilution factor (12 point dose response) and initially prepared in duplicate in 384 well-Corning polypropylene round bottom plates. The assay 2 plates have compound which is then frozen and must be thawed prior to use. Initially the Alexa 647 probe and the FimH-CRD are added to the assay buffer and then 0.5 μl of test compound (assay 1 or 2) between 0.4 nM to 75 μM final concentration are added (12 point titration with 3-fold serial dilution). Control wells for the Alexa 647 probe are prepared with the same conditions except for the addition of the FimH-CRD protein. Plates are then incubated for 5 hrs at room temperature in the dark and under humid conditions to prevent drying. Plates are read using the SpectraMax Paradigm multi-mode plate reader and the appropriate fluorescent polarization detection cartridge (Alexa-647).
Alexa 647 mannoside probe is prepared using the similar procedure reported for FAM mannoside (Han, Z. et. al., 2010, J. Med. Chem., 53, 4779) and is described in the scheme below.
To a blue colored stirred solution of (2S,3S,4S,5S,6R)-2-(4-aminobutoxy)-6-(hydroxymethyl)tetrahydropyran-3,4,5-triol (2.21 mg, 0.009 mmol) and the (2E)-2-[(2E,4E)-5-[3,3-dimethyl-5-sulfonato-1-(3-sulfonatopropyl)indol-1-ium-2-yl]penta-2,4-dienylidene]-3-[6-(2,5-dioxopyrrolidin-1-yl)oxy-6-oxo-hexyl]-3-methyl-1-(3-sulfonatopropyl)indoline-5-sulfonate (Potassium Ion (3)) (4.9 mg, 0.0044 mmol) in DMF (44 μL) is added Et3N (5.4 mg, 7.0 μL, 0.053 mmol) at RT. The solution is stirred at room temperature over night, concentrated, dissolved in water and purified on 12 g C-18 silica gel cartridge on Isolera system using acetonitrile in water (0 to 40%, 10 CV) and followed by lyophilization to afford Alexa 647 mannoside probe (3.3 mg, 34%) as deep blue solid.
The Kd values of the compounds are determined from dose response curves using twelve concentrations per compound in duplicate. Curves are fitted to data points using Fluorescence Polarization competitive displacement analysis, and Kds are interpolated from the resulting curves using GraphPad Prism software, version […] (GraphPad software Inc., San Diego, Calif., USA).
Take `O=C(C[C@H]1O[C@H](CO)[C@@H](O)[C@H](O)[C@@H]1O)Nc1ccc(NC(=O)C[C@H]2O[C@H](CO)[C@@H](O)[C@H](O)[C@@H]2O)cc1` [Compound 43, (2-[(2R,3S,4R,5S,6R)-3,4,5-Trihydroxy-6-(hydroxymethyl)tetrahydropyran-2-yl]-N-[4-[[2-[(2R,3S,4R,5,6R)-3,4,5-trihydroxy-6-(hydroxymethyl)tetrahydropyran-2-yl]acetyl]amino]phenyl]acetamide)]: the Kd was 20 nM and 27 nM.
Still for that read-out and setting: the same measure for `OC[C@H]1O[C@H](c2ccc(-n3cc([C@H]4O[C@H](CO)[C@@H](O)[C@H](O)[C@@H]4O)nn3)cc2)[C@@H](O)[C@@H](O)[C@@H]1O` [Compound 36, ((2R,3S,4R,5S,6R)-2-(Hydroxymethyl)-6-[4-[4-[(2R,3S,4R,5S,6R)-3,4,5-trihydroxy-6-(hydroxymethyl)tetrahydropyran-2-yl]triazol-1-yl]phenyl]tetrahydropyran-3,4,5-triol)]: 6 nM and 14 nM and < 5 nM.
With `Cc1cc(/C=C/C[C@H]2O[C@H](CO)[C@@H](O)[C@H](O)[C@@H]2O)cc(C)c1/C=C/C[C@H]1O[C@H](CO)[C@@H](O)[C@H](O)[C@@H]1O` [Compound 31, ((2R,3S,4R,5S,6R)-2-[(E)-3-[3,5-Dimethyl-4-[(E)-3-((2R,3S,4R,5S,6R)-3,4,5-trihydroxy-6-(hydroxymethyl)tetrahydropyran-2-yl]prop-1-enyl]phenyl]allyl]-6-(hydroxymethyl)tetrahydropyran-3,4,5-triol)], the Kd was less than 5 nM.
Turning to `OC[C@H]1O[C@H](C/C=C/c2ccc(C#Cc3ccc([C@H]4O[C@H](CO)[C@@H](O)[C@H](O)[C@@H]4O)cc3)cc2)[C@@H](O)[C@@H](O)[C@@H]1O` [Compound 34, ((2R,3 S,4R,5S,6R)-2-(Hydroxymethyl)-6-[(E)-3-[4-[2-[4-[(2R,3S,4R,5S,6R)-3,4,5-trihydroxy-6-(hydroxymethyl)tetrahydropyran-2-yl]phenyl]ethynyl]phenyl]allyl]tetrahydropyran-3,4,5-triol)], the dissociation constant Kd was < 5 nM and 6 nM.
As to `O=C(Nc1ccc(NC(=O)c2cccc([C@H]3O[C@H](CO)[C@@H](O)[C@H](O)[C@@H]3O)c2)cc1)c1cccc([C@H]2O[C@H](CO)[C@@H](O)[C@H](O)[C@@H]2O)c1` [Compound 7, (3-[(2R,3S,4R,5S,6R)-3,4,5-Trihydroxy-6-(hydroxymethyl)tetrahydropyran-2-yl]-N-[4-[[3-[(2R,3S,4R,5S,6R)-3,4,5-trihydroxy-6-(hydroxymethyl)tetrahydropyran-2-yl]benzoyl]amino]phenyl]benzamide)], the equilibrium dissociation constant (Kd) is 17 nM and 11 nM.
As for `O=C(NCCCCNC(=O)c1cccc([C@H]2O[C@H](CO)[C@@H](O)[C@H](O)[C@@H]2O)c1)c1cccc([C@H]2O[C@H](CO)[C@@H](O)[C@H](O)[C@@H]2O)c1` [Compound 10, (R,R,S,R,S)-N,N′-(Butane-1,4-diyl)bis(3-((2R,3S,4R,5S,6R)-3,4,5-trihydroxy-6-(hydroxymethyl)tetrahydro-2H-pyran-2-yl)benzamide)], the dissociation constant Kd is 9 nM and 15 nM.
With `O=C(NCCCCCCNC(=O)c1cccc([C@H]2O[C@H](CO)[C@@H](O)[C@H](O)[C@@H]2O)c1)c1cccc([C@H]2O[C@H](CO)[C@@H](O)[C@H](O)[C@@H]2O)c1` [Compound 12, (R,R,S,R,S)-N,N′-(Hexane-1,6-diyl)bis(3-((2R,3S,4R,5S,6R)-3,4,5-trihydroxy-6-(hydroxymethyl)tetrahydro-2H-pyran-2-yl)benzamide)], the equilibrium dissociation constant (Kd) is 14 nM and 18 nM.
With `O=C(Nc1ccc([C@H]2O[C@H](CO)[C@@H](O)[C@H](O)[C@@H]2O)cc1)c1cccc([C@H]2O[C@H](CO)[C@@H](O)[C@H](O)[C@@H]2O)c1` [Compound 39, (3-[(2R,3S,4R,5S,6R)-3,4,5-Trihydroxy-6-(hydroxymethyl)tetrahydropyran-2-yl]-N-[4-[(2R,3S,4R,5S,6R)-3,4,5-trihydroxy-6-(hydroxymethyl)tetrahydropyran-2-yl]phenyl]benzamide)], the dissociation constant (Kd) was 29 nM and 46 nM.
`OC[C@H]1O[C@H](Oc2cccc([C@H]3O[C@H](CO)[C@@H](O)[C@H](O)[C@@H]3O)c2)[C@@H](O)[C@@H](O)[C@@H]1O` [Compound 17, ((2R,3S,4R,5S,6R)-2-(Hydroxymethyl)-6-[3-[(2R,3S,4S,5S,6R)-3,4,5-trihydroxy-6-(hydroxymethyl)tetrahydropyran-2-yl]oxyphenyl]tetrahydropyran-3,4,5-triol)]: the dissociation constant Kd was < 5 nM and 6 nM.
With `CC(C)Oc1ccc([C@H]2O[C@H](CO)[C@@H](O)[C@H](O)[C@@H]2O)cc1[C@H]1O[C@H](CO)[C@@H](O)[C@H](O)[C@@H]1O` [Compound 4], the Kd is 68 nM and 96 nM.
Consider `O=C(NCCCCCCCNC(=O)c1cccc([C@H]2O[C@H](CO)[C@@H](O)[C@H](O)[C@@H]2O)c1)c1cccc([C@H]2O[C@H](CO)[C@@H](O)[C@H](O)[C@@H]2O)c1` [Compound 13, (R,R,S,R,S)-N,N′-(Heptane-1,7-diyl)bis(3-((2R,3S,4R,5S,6R)-3,4,5-trihydroxy-6-(hydroxymethyl)tetrahydro-2H-pyran-2-yl)benzamide)], for which the Kd was 17 nM and 12 nM.

The assay is the same for the next values; noted with them: read-out: Assay 1 Kd, 5 nM Alexa 647 mannoside probe, 60 nM FimH-CRD, replicate values in one cell.
For the compound `Cc1cc(/C=C/C[C@H]2O[C@H](CO)[C@@H](O)[C@H](O)[C@@H]2O)cc(C)c1/C=C/C[C@H]1O[C@H](CO)[C@@H](O)[C@H](O)[C@@H]1O` [Compound 31, ((2R,3S,4R,5S,6R)-2-[(E)-3-[3,5-Dimethyl-4-[(E)-3-((2R,3S,4R,5S,6R)-3,4,5-trihydroxy-6-(hydroxymethyl)tetrahydropyran-2-yl]prop-1-enyl]phenyl]allyl]-6-(hydroxymethyl)tetrahydropyran-3,4,5-triol)], the Kd was less than 5 nM.

The record behind these values is patent US11634447B2 (priority 2012, dated 2023).
